# From patent publication US11793827B2, “Adenosine derivative and pharmaceutical composition comprising the same” (Brii Biosciences, Inc., priority 2021, dated 2023)
# How the values were obtained:
# [1] = Plasma stability (human plasma); conditions: for Formation of EFdA at 30 min: human plasma; for half-life at 2 µM: human, pH 7.4
# Method: The pooled frozen plasma was thawed in a water bath at 37° C. prior to experiment. Plasma was centrifuged at 4000 rpm for 5 min and the clots were removed if any. The pH will be adjusted to 7.4±0.1 if required.
# Preparation of test compounds and positive control (propantheline bromide): 1 mM intermediate solution was prepared by diluting 10 μL of the stock solution with 90 μL MeOH; 1 mM intermediate of positive control Propantheline was prepared by diluting 10 μL of the stock solution with 90 μL ultrapure water. 100 μM dosing solution was prepared by diluting 20 μL of the intermediate solution (1 mM) with 180 μL MeOH. 98 μL of blank plasma was spiked with 2 μL of dosing solution (100 μM) to achieve 2 μM of the final concentration in duplicate and samples were incubated at 37° C. in a water bath. […] Centrifuged sample plates at 4,000 rpm for 10 min. An aliquot of supernatant (100 μL) was transferred from each well to another plates.
# [2] = Liver S9 stability (human liver S9); format: in vitro ADME; conditions: for half-life at 1 µM: human liver S9, 37° C.; for Formation of EFdA at 30 min: human liver S9, 30 min
# Method: Add 600 μL/well stop solution (cold in 4° C., including 100 ng/mL Tolbutamide/100 ng/mL Labetalol) to terminate the TO plate, then put it on ice. Dispense 840 μL/well S9 solution to 96-well plate as reservoir according to plate map. Then add 100 μL/well to every plate by Apricot. Incubate S9 solution and compound at 37° C. for about 10 min except NCF60 and TO. After adding S9 solution and 98μ LPB buffer to NCF60, incubate at 37° C. without pre-warming, start timer 1. After 60 min, add 600 μL/well stop solution to terminate the reaction. After pre-warming, dispense 760 μL/well cofactor solution to 96-well plate as reservoir according to plate map. Then add 98 μL/well to every plate by Apricot to start reaction. Incubate at 37° C., start timer 2, Add 600 μL/well stop solution (cold in 4° C., including 100 ng/mL Tolbutamide and Labetalol) to terminate the reaction. Samples are centrifuged at 4000 rpm for 20 min. While centrifuging, load 8× new 96-well plate with 300 μL HPLC water, then transfer 100 μL supernatant, mix with water for LC/MS/MS, transferred to Bioanalytical Services for LC-MS/MS analysis. Use equation of first order kinetics [NT]1/2 and CL: Equation of first order kinetics: [formula] [formula] [formula] [formula]
SMILES,Formation of EFdA at 30 min [1],half-life at 2 µM ([1]; pooled plasma),half-life at 1 µM [2],Formation of EFdA at 30 min [2],half-life at 2 µM ([1]; plasma)
"C#C[C@@]12COC(=O)OCC3CCCCC3COC(=O)OC1C[C@H](n1cnc3c(N)nc(F)nc31)O2 (stereo in doubt) [Compound 30, (6R,8R,10R)-8-(6-amino-2-fluoro-9H-purin-9-yl)-10-ethynyl-3,5,9,12,14-pentaoxatricyclo[14.4.0.06,10]icosane-4,13-dione]",No,50 to 200 min,< 50 min,Yes,
"C#C[C@]1(COC(=O)CC23CC4CC(CC(C4)C2)C3)O[C@@H](n2cnc3c(N)nc(F)nc32)C[C@@H]1O [Compound 1, ((2R,3S,5R)-5-(6-amino-2-fluoro-9H-purin-9-yl)-2-ethynyl-3-hydroxy-tetrahydrofuran-2-yl)methyl 2-(1-adamantyl) acetate]",No,> 200 min,< 50 min,Yes,
"C#C[C@]1(COC(=O)OC23CC4CC(CC(C4)C2)C3)O[C@@H](n2cnc3c(N)nc(F)nc32)C[C@@H]1O [Compound 4, ((2R, 3S, 5R)-5-(6-amino-2-fluoro-9H-purin-9-yl)-2-ethynyl-3-hydroxy-tetrahydrofuran-2-yl)methyl 1-adamantyl carbonate]",Yes,> 200 min,< 50 min,Yes,
"C#C[C@]1(COC(=O)OCCC23CC4CC(CC(C4)C2)C3)O[C@@H](n2cnc3c(N)nc(F)nc32)C[C@@H]1OC(=O)OCCC12CC3CC(CC(C3)C1)C2 [Compound 9, ((2R,3S,5R)-2-((((2-(1-adamantyl)ethoxy)carbonyl)oxy)methyl)-5-(6-amino-2-fluoro-9H-purin-9-yl)-2-ethynyltetrahydrofuran-3-yl) 2-(1-adamantyl)ethyl carbonate]",No,> 200 min,< 50 min,Yes,
"C#C[C@]1(CO)O[C@@H](n2cnc3c(N)nc(F)nc32)C[C@@H]1OC(=O)OCCCC12CC3CC(CC(C3)C1)C2 [Compound 11, ((2R,3S,5R)-5-(6-amino-2-fluoro-9H-purin-9-yl)-2-ethynyl-2-(hydroxymethyl)tetrahydrofuran-3-yl) 3-(1-adamantyl)propyl carbonate]",,,< 50 min,Yes,
"C#C[C@]1(CO)O[C@@H](n2cnc3c(N)nc(F)nc32)C[C@@H]1OC(=O)OCCCCC12CC3CC(CC(C3)C1)C2 [Compound 13, ((2R,3S,5R)-5-(6-amino-2-fluoro-9H-purin-9-yl)-2-ethynyl-2-(hydroxymethyl)tetrahydrofuran-3-yl) 4-(1-adamantyl)butyl carbonate]",,,< 50 min,Yes,
"C#C[C@]1(COC(=O)CCC23CC4CC(CC(C4)C2)C3)O[C@@H](n2cnc3c(N)nc(F)nc32)C[C@@H]1O [Compound 14, ((2R, 3S, 5R)-5-(6-amino-2-fluoro-9H-purin-9-yl)-2-ethynyl-3-hydroxy-tetrahydrofuran-2-yl)methyl 3-(1-adamantyl)propanoate]",Yes,< 50 min,< 50 min,Yes,
"C#C[C@]1(COC(=O)CCCC23CC4CC(CC(C4)C2)C3)O[C@@H](n2cnc3c(N)nc(F)nc32)C[C@@H]1O [Compound 15, ((2R, 3S, 5R)-5-(6-amino-2-fluoro-9H-purin-9-yl)-2-ethynyl-3-hydroxy-tetrahydrofuran-2-yl)methyl 4-(1-adamantyl)butanoate]",Yes,< 50 min,< 50 min,Yes,
"C#C[C@@]12COC(=O)OCCCOC(=O)O[C@H]1C[C@H](n1cnc3c(N)nc(F)nc31)O2 [Compound 16, (10aR,12R,13aS)-12-(6-amino-2-fluoro-9H-purin-9-yl)-10a-ethynylhexahydro-4H,10H-furo[3,2-d][1,3,7,9]tetraoxacyclododecine-2,8-dione]",Yes,,,,50 to 200 min
"C#C[C@@]12COC(=O)CCCCCOC(=O)O[C@H]1C[C@H](n1cnc3c(N)nc(F)nc31)O2 [Compound 17, (11aR,13R,14aS)-13-(6-amino-2-fluoro-9H-purin-9-yl)-11a-ethynyloctahydro-11H-furo[3,2-d][1,3,7]trioxacyclotridecine-2,9(4H)-dione]",Yes,> 200 min,< 50 min,Yes,
"C#C[C@]1(COC(=O)OCCC23CC4CC(CC(C4)C2)C3)O[C@@H](n2cnc3c(N)nc(F)nc32)C[C@@H]1OC(=O)OCC [Compound 18, ((2R,3S,5R)-2-((((2-(1-adamantyl)ethoxy)carbonyl)oxy)methyl)-5-(6-amino-2-fluoro-9H-purin-9-yl)-2-ethynyltetrahydrofuran-3-yl) ethyl carbonate]",No,,< 50 min,Yes,< 50 min
"C#C[C@]1(COC(=O)OCCCC23CC4CC(CC(C4)C2)C3)O[C@@H](n2cnc3c(N)nc(F)nc32)C[C@@H]1OC(=O)C(C)C [Compound 21, ((2R,3S,5R)-2-((((3-(1-adamantyl)propoxy)carbonyl)oxy)methyl)-5-(6-amino-2-fluoro-9H-purin-9-yl)-2-ethynyltetrahydrofuran-3-yl) isobutyrate]",Yes,50 to 200 min,< 50 min,Yes,

# Second part, led by results:
Formation of EFdA at 30 min [1],half-life at 2 µM ([1]; pooled plasma),half-life at 1 µM [2],Formation of EFdA at 30 min [2],SMILES,half-life at 2 µM ([1]; plasma)
Yes,< 50 min,< 50 min,Yes,"C#C[C@@]12COC(=O)OCCCCCC(=O)OC1C[C@H](n1cnc3c(N)nc(F)nc31)O2 (stereo in doubt) [Compound 29, (1R,13R,15R)-15-(6-amino-2-fluoro-9H-purin-9-yl)-13-ethynyl-2,9,11,14-tetraoxabicyclo[11.3.0]hexadecane-3,10-dione]",
No,< 50 min,< 50 min,Yes,"C#C[C@]1(COC(=O)C23CC4CC(CC(C4)C2)C3)O[C@@H](n2cnc3c(N)nc(F)nc32)C[C@@H]1O [Compound 3, ((2R, 3S, 5R)-5-(6-amino-2-fluoro-9H-purin-9-yl)-2-ethynyl-3-hydroxy-tetrahydrofuran-2-yl)methyl adamantane-1-carboxylate]",
No,> 200 min,< 50 min,Yes,"C#C[C@]1(COC(=O)OC23CC4CC(CC(C4)C2)C3)O[C@@H](n2cnc3c(N)nc(F)nc32)C[C@@H]1OC(=O)OC12CC3CC(CC(C3)C1)C2 [Compound 6, (((2R,3S,5R)-3-((((1-adamantyl)oxy)carbonyl)oxy)-5-(6-amino-2-fluoro-9H-purin-9-yl)-2-ethynyltetrahydrofuran-2-yl)methyl) 1-adamantyl carbonate]",
Yes,50 to 200 min,< 50 min,Yes,"C#C[C@]1(CO)O[C@@H](n2cnc3c(N)nc(F)nc32)C[C@@H]1OC(=O)OCCC12CC3CC(CC(C3)C1)C2 [Compound 8, ((2R,3S,5R)-5-(6-amino-2-fluoro-9H-purin-9-yl)-2-ethynyl-2-(hydroxymethyl)tetrahydrofuran-3-yl) 2-(1-adamantyl)ethyl carbonate]",
No,< 50 min,< 50 min,Yes,"C#C[C@]1(COC(=O)OCCC23CC4CC(CC(C4)C2)C3)O[C@@H](n2cnc3c(N)nc(F)nc32)C[C@@H]1OC(=O)C(C)C [Compound 19, ((2R,3S,5R)-2-((((2-(1-adamantyl)ethoxy)carbonyl)oxy)methyl)-5-(6-amino-2-fluoro-9H-purin-9-yl)-2-ethynyltetrahydrofuran-3-yl) isobutyrate]",
,,< 50 min,Yes,"C#C[C@]1(COC(=O)OCC23CC4CC(CC(C4)C2)C3)O[C@@H](n2cnc3c(N)nc(F)nc32)C[C@@H]1OC(=O)C(C)C [Compound 20, ((2R,3S,5R)-2-(((((1-adamantyl)methoxy)carbonyl)oxy)methyl)-5-(6-amino-2-fluoro-9H-purin-9-yl)-2-ethynyltetrahydrofuran-3-yl) isobutyrate]",
